Measured values from patent publication US11390621B2, “Chiral indole compounds and their use” (ARIAGEN, INC., priority 2019, dated 2022).
“And” between values parts separate entries of the source, which are not always exact repeats. Equal entries are not always repeated. Where two headings read alike, the source gives them in different places.

Assays:
human hepatocytes = assay: Hepatocyte intrinsic clearance assay (metabolic stability), human hepatocytes; type: in vitro ADME; settings: Human Hepatocytes; for EH (hepatic extraction ratio): well stirred liver model, fu=1
Source text: (§1) The liver is an important organ in the body for drug metabolism. This Example describes hepatocyte intrinsic clearance assays using both human and rat hepatocytes to evaluate the metabolic stability of the indole compounds disclosed herein. The parameters measured include t1/2 (half-life), CLint (intrinsic clearance), and EH (hepatic extraction ratio).
(§2) Testosterone (Lot FE111011-01) was obtained from Cerilliant (Round Rock, Tex.). 7-hydroxycoumarin (Lot 11631ED) was obtained from Sigma Aldrich (St. Louis, Mo.). Cryopreserved human hepatocytes pooled from ten donor males (X008001), cryopreserved male IRC/CD-1 mouse hepatocytes (M005052), INVITROGRO HI Medium (incubation), and INVITROGRO HT Medium (thawing) were obtained from Bioreclamation IVT (Baltimore, Md.). All solvents were obtained from commercial sources and used without further purification.
(§3) Each test compound was prepared as a 1 mM stock solution in DMSO. A 2 μM solution of test compound and positive controls were prepared in INVITROGRO HI Medium (incubation). These solutions were pre-warmed in a sterile incubator set to maintain 37° C., 5% CO2, and 98% humidity. Cryopreserved hepatocytes were prepared at a concentration of 2×10^6 living cells/mL in incubation media and pre-warmed in the incubator. The compound solutions and hepatocyte mixtures were then combined at a ratio of 1:1 (v:v). The final volume of the reaction mixture was 750 μL, containing 1 μM test compound (10 μM for 7-hydroxycoumarin) and […]. The reaction mixture was placed in the incubator on a plate shaker. After 0, 15, 30, 60, 90, and 120 minutes of incubation, 100 μL of reaction mixtures were removed from the incubation plate and mixed with 150 μL of ice-cold acetonitrile in a designated well of a 96-well crash plate. The 96-well crash plate was placed on ice for 15 min, and samples were centrifuged (3,600 RPM, 10 min, 4° C.) to precipitate protein. The supernatants were diluted 1:1 (v:v) with water containing 0.15 μM verapamil and/or 1 μM tolbutamide (internal standards for positive and negative modes, respectively) in a 96-well shallow injection plate. This plate was sealed for LC-MS analysis. All measurements were done in duplicate.
(§4) The residual compound remaining (% R) was determined from LC-MS peak areas by comparison to the zero time point. Metabolic half-life (t1/2) and intrinsic clearance (CLint) values were calculated from the slope of the plot of ln (% R) vs. time and the concentration of hepatocytes present in the incubation. Percent remaining at 60 minutes was calculated by plugging in the 60 minute value into the slope equation generated by the percent remaining time points.
(§5) In vivo hepatic clearance CLH was calculated using the well stirred liver model according to the following equation:
(§6) [formula] where QH is the total liver blood flow, fu is unbound fraction of the drug, and CL′int is defined as follows: CL′int=CLint×(10^6 cells/g of liver weight)×(g liver weight/kg of body weight). In the first approximation, used in this study, fu=1.
(§7) Hepatic extraction ratio EH was calculated using the following equation:
(§8) [formula] Corresponding physiological parameters used in calculations for all species are shown below in Table 3.

rat hepatocytes = assay: Hepatocyte intrinsic clearance assay (metabolic stability), rat hepatocytes; type: in vitro ADME; settings: Rat Hepatocytes; well stirred liver model, fu=1
Source text: as §1, §2, §3, §4, §5, §6, §7, §8

[1] = Hepatocyte intrinsic clearance assay (metabolic stability), human hepatocytes; type: in vitro ADME; settings: male, human, cryopreserved pooled hepatocytes, Human Hepatocytes, 1 μM test compound
Source text: as §1, §2, §3, §4, §5, §6, §7, §8

[2] = In vivo pharmacokinetic studies in rats; parameters: species or system SD rats; settings: for Tmax: read-out: Tmax
Procedure: This example describes pharmacokinetic (PK) studies of ARI-164, ARI-165, ARI-186, ARI-224, and ARI-226 in mice and rats. In the present studies, the test compounds were given to groups of mice and/or rats (N=3 in each group), intravenously (IV) at 2 mg/kg or orally (PO) at 10, 30, or 40 mg/kg. ARI-186, ARI-224 and ARI-226 were given orally to rats QD for 5 days at 10 mg/kg to assess whether decreased susceptibility to CYP1A1/1A2 metabolism would lead to increased accumulation. IV doses were formulated in DMSO, while PO doses were formulated in a 50/50 mixture of PEG400 and Tween 80 (single dose mouse and rat studies for ARI-164, ARI-165, ARI-186, ARI-224, ARI-226) or PEG400/Kolliphor HS15/Oleic Acid 45/45/10 (ARI-164 repeat dose rat study). Blood samples were collected at pre-dose and over a period of 24 hours post-dose. Plasma concentrations of the test compounds were determined by HPLC.

[3] = Hepatocyte intrinsic clearance assay (metabolic stability), rat hepatocytes; type: in vitro ADME; settings: rat, cryopreserved hepatocytes, Rat Hepatocytes, 1 μM test compound
Source text: as §1, §2, §3, §4, §5, §6, §7, §8

[4] = SD, rat, plasma, iv, 2 mg/kg, rats, single 2 mg/kg IV dose, Mean of 3 animals
[5] = SD, rat, plasma, iv, 2 mg/kg, rats, single 2 mg/kg IV dose, individual animal
[6] = Sprague-Dawley (SD), rat, plasma, iv, 2 mg/kg, rats, single 2 mg/kg IV dose, Mean of 3 animals
[7] = Sprague-Dawley (SD), rat, plasma, po, 10 mg/kg, rats, single 10 mg/kg PO dose, Mean of 3 animals
[8] = Sprague-Dawley (SD), rat, plasma, po, 10 mg/kg, rats, single 10 mg/kg PO dose, individual animal
[9] = rats, single 2 mg/kg IV dose, individual animal, 2 mg/kg
[10] = rats, single 10 mg/kg PO dose, individual animal, 10 mg/kg

Structure (SMILES): CCC(=O)c1csc(C(=O)c2c[nH]c3cc(F)ccc23)n1 [ARI-143, 1-(2-(6-fluoro-1H-indole-3-carbonyl)thiazol-4-yl)propan-1-one]
- EH (hepatic extraction ratio) (human hepatocytes): 26.1% and 25.5% and 25.7%
- EH (hepatic extraction ratio) (rat hepatocytes): 48.0% and 47.8% and 48.5% and 49.7% and 74.6%

Structure (SMILES): CC[C@H](O)c1csc(C(=O)c2c[nH]c3cc(F)ccc23)n1 [ARI-164, (S)-(6-Fluoro-1H-indol-3-yl)(4-(1-hydroxypropyl)thiazol-2-yl)methanone]
- half-life at 1 μM [1]: 0.7 h
- hepatocyte CLint at 1 μM [1]: 15.7 µL/min/1e6 cells
- CLint (human hepatocytes; 1 μM test compound): 13.556 μL/min/10^6 cells and 15.446 μL/min/10^6 cells and 13.712 μL/min/10^6 cells and 15.383 μL/min/10^6 cells
- EH (hepatic extraction ratio) (human hepatocytes): 25.3% and 24.6% and 25.2% and 19.9%
- EH (hepatic extraction ratio) (rat hepatocytes): 33.3% and 34.6% and 28.8% and 35.0% and 48.8%
- AUC(0-inf) [2, 4]: 21500 ng·h/mL
- clearance [2, 4]: 1.55 mL/min/kg
- AUC(0-t) ([2]; SD, rat, plasma, iv, 2 mg/kg, rats, single 2 mg/kg IV dose, Mean of 3 animals, read-out: AUClast): 21400 ng·h/mL
- AUC(0-inf) [2, 5]: 20500 ng·h/mL
- clearance [2, 5]: 1.63 mL/min/kg
- half-life [2, 5]: 3.91 h
- AUC(0-t) ([2]; SD, rat, plasma, iv, 2 mg/kg, rats, single 2 mg/kg IV dose, individual animal, read-out: AUClast): 20300 ng·h/mL
- Cmax ([2]; SD, rat, plasma, iv, 2 mg/kg, rats, single 2 mg/kg IV dose, individual animal, read-out: Cmax): 42200 ng/mL
- Tmax [2, 5]: 0.083 h
- MRT inf [2, 6]: 1.69 h
- MRT last [2, 6]: 1.63 h
- half-life [2, 6]: 2.85 h
- Cmax ([2]; Sprague-Dawley (SD), rat, plasma, iv, 2 mg/kg, rats, single 2 mg/kg IV dose, Mean of 3 animals, read-out: Cmax): 40700 ng/mL
- Tmax [2, 6]: 0.083 h
- Vd ([2]; Sprague-Dawley (SD), rat, plasma, iv, 2 mg/kg, rats, single 2 mg/kg IV dose, Mean of 3 animals, read-out: Vss): 0.155 L/kg
- AUC(0-inf) [2, 7]: 2090 ng·h/mL
- MRT inf [2, 7]: 2.87 h
- MRT last [2, 7]: 2.85 h
- half-life [2, 7]: 1.37 h
- AUC(0-t) ([2]; Sprague-Dawley (SD), rat, plasma, po, 10 mg/kg, rats, single 10 mg/kg PO dose, Mean of 3 animals, read-out: AUClast): 2090 ng·h/mL
- Cmax ([2]; Sprague-Dawley (SD), rat, plasma, po, 10 mg/kg, rats, single 10 mg/kg PO dose, Mean of 3 animals, read-out: Cmax): 511 ng/mL
- Tmax [2, 7]: 1.67 h
- AUC(0-inf) [2, 8]: 2110 ng·h/mL
- MRT inf [2, 8]: 2.65 h
- MRT last [2, 8]: 2.64 h
- AUC(0-t) ([2]; Sprague-Dawley (SD), rat, plasma, po, 10 mg/kg, rats, single 10 mg/kg PO dose, individual animal, read-out: AUClast): 2110 ng·h/mL
- Cmax ([2]; Sprague-Dawley (SD), rat, plasma, po, 10 mg/kg, rats, single 10 mg/kg PO dose, individual animal, read-out: Cmax): 532 ng/mL
- Tmax [2, 8]: 2 h
- bioavailability ([2]; Sprague-Dawley (SD), rat, plasma, rats, 10 mg/kg PO vs 2 mg/kg IV, read-out: F (Bioavailability)): 1.94%
- Cmax/Dose ([2]; male rats, repeat 30 mg/kg oral dose, Day 1, Mean): 16.6 kg·ng/mL/mg
- Tlast^a ([2]; male rats, repeat 30 mg/kg oral dose, Day 1, Mean row): 8 h
- Cmax/Dose ([2]; male rats, repeat 30 mg/kg oral dose, Day 7, Mean): 0.245 kg·ng/mL/mg
- Tlast^a ([2]; male rats, repeat 30 mg/kg oral dose, Day 7, range printed in SD row): (1-4) hr
- Cmax at 1 day ([2]; male, Sprague-Dawley (SD), rat, plasma, po, 30 mg/kg, male rats, repeat 30 mg/kg oral dose, Day 1, Mean): 499 ng/mL
- Tmax at 1 day ([2]; male, Sprague-Dawley (SD), rat, plasma, po, 30 mg/kg, male rats, repeat 30 mg/kg oral dose, Day 1, Mean row, read-out: Tmax^a): 1 h
- AUC(0-t) ([2]; male, Sprague-Dawley (SD), rat, plasma, po, 30 mg/kg, male rats, repeat 30 mg/kg oral dose, Day 1, Mean, read-out: AUCTlast): 1430 ng·h/mL
- Cmax at 7 day ([2]; male, Sprague-Dawley (SD), rat, plasma, po, 30 mg/kg, male rats, repeat 30 mg/kg oral dose, Day 7, Mean): 2.93 ng/mL
- Tmax at 7 day ([2]; male, Sprague-Dawley (SD), rat, plasma, po, 30 mg/kg, male rats, repeat 30 mg/kg oral dose, Day 7, Mean row): 1 h
- decrease in exposure after repeat oral dosing ([2]; rats, 30 mg/kg QD): greater than 90%
- AUCinf [2, 9]: 23000 ng·h/mL and 21000 ng·h/mL
- AUClast [2, 9]: 23000 ng·h/mL and 21000 ng·h/mL
- Cl [2, 9]: 1.45 mL/min/kg and 1.58 mL/min/kg
- Cmax [2, 9]: 35400 ng/mL and 44500 ng/mL
- MRTinf [2, 9]: 1.53 h and 2.5 h and 1.04 h
- MRTlast [2, 9]: 1.38 h and 2.49 h and 1.03 h
- T1/2 [2, 9]: 2.39 h and 2.24 h
- Vss [2, 9]: 0.149 L/kg and 0.218 L/kg and 0.0986 L/kg
- AUCinf [2, 10]: 2660 ng·h/mL and 1500 ng·h/mL
- AUClast [2, 10]: 2650 ng·h/mL and 1500 ng·h/mL
- Cmax [2, 10]: 646 ng/mL and 354 ng/mL
- MRTinf [2, 10]: 3.05 h and 2.92 h
- MRTlast [2, 10]: 3.02 h and 2.88 h
- T1/2 [2, 10]: 0.56 h and 0.746 h and 2.82 h

Structure (SMILES): CC[C@@H](N)c1csc(C(=O)c2c[nH]c3cc(F)ccc23)n1 [ARI-187, (R)-(4-(1-aminopropyl)thiazol-2-yl)(6-fluoro-1H-indol-3-yl)methanone]
- half-life at 1 μM [1]: 18.6 h
- hepatocyte CLint at 1 μM [1]: 0.621 µL/min/1e6 cells
- EH (hepatic extraction ratio) (human hepatocytes): 4.4%
- half-life at 1 μM [3]: 2.3 h
- hepatocyte CLint at 1 μM [3]: 4.93 µL/min/1e6 cells
- EH (hepatic extraction ratio) (rat hepatocytes): 24.8%

Structure (SMILES): O=C(c1nc([C@@H](O)C(F)(F)F)cs1)c1c[nH]c2cc(F)ccc12 [ARI-211]
- half-life at 1 μM [1]: 1 h
- hepatocyte CLint at 1 μM [1]: 11.3 µL/min/1e6 cells
- EH (hepatic extraction ratio) (human hepatocytes): 23.6%
- half-life at 1 μM [3]: 3.6 h
- hepatocyte CLint at 1 μM [3]: 3.21 µL/min/1e6 cells
- EH (hepatic extraction ratio) (rat hepatocytes): 17.7%

Structure (SMILES): O=C(c1nc([C@H](O)C(F)(F)F)cs1)c1c[nH]c2cc(F)ccc12 [ARI-212]
- half-life at 1 μM [1]: 0.3 h
- hepatocyte CLint at 1 μM [1]: 44.1 µL/min/1e6 cells
- EH (hepatic extraction ratio) (human hepatocytes): 28.9%
- half-life at 1 μM [3]: 3 h
- hepatocyte CLint at 1 μM [3]: 3.85 µL/min/1e6 cells
- EH (hepatic extraction ratio) (rat hepatocytes): 20.5%
